Measured values from publication PMC7248907, “Naphthoquinones as Covalent Reversible Inhibitors of Cysteine Proteases—Studies on Inhibition Mechanism and Kinetics” (Molecules, 2020).
Values joined by “and” are separate entries in the source; they are usually repeats but may differ in a detail not shown here. Identical values can stand only once. “Also recorded” adds a separate entry of the source. Like-named read-outs stand apart in the source and are kept apart here.

Key:
[1] = biological target: T1, rhodesain (Trypanosoma brucei rhodesiense, UniProt Q95PM0); experiment: biochemical; type: biochemical; settings: for inhibition at 20 µM: at 20 µM inhibitor, read-out: Rhod. % inh.; for fold improvement of rhodesain inhibition, acid compared to benzyl ester: 3 compared to 1, 4 compared to 2; for Rhod. t1/2: half-life of final complex, 0.693/k4; for Rhod. ΔEreac: reaction energy of second inhibition step from k3/k4; for Rhod. k3 / Rhod. k4: second inhibition step; for Rhod. k3: forward rate; for Rhod. k4: off-rate
T1 construct: made in house; host or cells: Pichia pastoris
T1 sequence (Q95PM0 entry or part of it): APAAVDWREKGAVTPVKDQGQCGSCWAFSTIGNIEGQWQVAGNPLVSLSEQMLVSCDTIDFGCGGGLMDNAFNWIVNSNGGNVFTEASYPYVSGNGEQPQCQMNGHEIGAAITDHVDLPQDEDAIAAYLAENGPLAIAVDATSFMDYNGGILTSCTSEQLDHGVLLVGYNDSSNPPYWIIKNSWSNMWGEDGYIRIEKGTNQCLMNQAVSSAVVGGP

[2] = biological target: T2, cathepsin L (Homo sapiens, UniProt P07711); experiment: Fluorometric cathepsin L inhibition assay (Cbz-Phe-Arg-AMC); type: biochemical; design: purchased Calbiochem, Merck Millipore; settings: for inhibition at 20 µM: at 20 µM inhibitor, read-out: Cath. L % inh.; for Cath. L t1/2: half-life of final complex, 0.693/k4; for Cath. L ΔEreac: reaction energy of second inhibition step from k3/k4; for Cath. L k3 / Cath. L k4: second inhibition step; for Cath. L k3: forward rate; for Cath. L k4: off-rate
T2 sequence (P07711 114-333): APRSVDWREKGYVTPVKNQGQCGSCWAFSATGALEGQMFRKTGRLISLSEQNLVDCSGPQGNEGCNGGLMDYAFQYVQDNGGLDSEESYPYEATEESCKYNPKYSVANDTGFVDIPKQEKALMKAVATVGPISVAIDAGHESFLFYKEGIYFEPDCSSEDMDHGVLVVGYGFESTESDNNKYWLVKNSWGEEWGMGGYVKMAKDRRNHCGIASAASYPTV

[3] = biological target: T3, NS3/NS2B protease of the Dengue virus (DENV PR) (Dengue virus type 2, UniProt P29990); experiment: Fluorometric DENV NS2B/NS3 protease assay (Boc-Gly-Arg-Arg-AMC); type: biochemical; settings: for inhibition at 20 µM: at 20 µM inhibitor, read-out: DENV PR % inh.
T3 construct: the NS3/NS2B protease of the Dengue virus (DENV PR)
T3 sequence (P29990 1346-1475): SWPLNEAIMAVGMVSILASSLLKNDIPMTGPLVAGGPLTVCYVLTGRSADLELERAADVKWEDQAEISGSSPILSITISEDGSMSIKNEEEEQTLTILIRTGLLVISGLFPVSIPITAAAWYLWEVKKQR
T3 sequence (P29990 1476-1653): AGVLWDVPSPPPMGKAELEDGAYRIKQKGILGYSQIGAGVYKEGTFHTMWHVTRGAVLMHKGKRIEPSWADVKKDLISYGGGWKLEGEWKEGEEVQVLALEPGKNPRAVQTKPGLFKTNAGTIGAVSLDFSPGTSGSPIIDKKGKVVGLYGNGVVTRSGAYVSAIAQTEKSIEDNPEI

[4] = biological target: T4, cathepsin B (Homo sapiens, UniProt P07858); experiment: Fluorometric cathepsin B inhibition assay (Cbz-Phe-Arg-AMC); type: biochemical; settings: for inhibition at 20 µM: at 20 µM inhibitor, read-out: Cath. B % inh.
T4 construct: purchased Calbiochem, Merck Millipore

[5] = biological target: T1, rhodesain; experiment: Dialysis assay (reversibility), rhodesain; type: biochemical; settings: 20×IC50, 30 min preincubation, dialysis up to 120 min
[6] = biological target: T2, cathepsin L; experiment: Dilution assay (reversibility), cathepsin L; settings: 5×IC50, 15 min incubation, 50-fold dilution
Method: Then, the mixture was diluted by 50-fold to yield a final inhibitor concentration of 10% of the IC50 concentration.
Fluorometric assays for cathepsin B and cathepsin L (Calbiochem, Merck
Millipore) were performed as described previously.[7,8] Cbz-Phe-Arg-AMC was used as substrate
(final conc.: 100 μM for cathepsin B, 6.5 μM for cathepsin L) in assay buffer (50 mM Tris, pH 6.5,
Recombinantly expressed rhodesain (0.9 mg/mL) or cathepsin L (Calbiochem, Merck Millipore) were
diluted 1:100 in enzyme buffer (rhodesain: 50 mM sodium acetate, pH 5.5, 5 mM EDTA, 200 mM
NaCl and 2 mM DTT; cathepsin L: 50 mM Tris, pH 6.5, 5 mM EDTA, 200 mM NaCl and 2 mM DTT)
and preincubated for 1 h at room temperature. 54 μL of the respective enzyme solution was treated
enzyme-inhibitor reactions were incubated for 15 min at room temperature to ensure complete
inhibition. 1.2 μL of each reaction mixture was diluted with 57.3 μL of the respective assay buffer
(rhodesain: 50 mM sodium acetate, pH 5.5, 5 mM EDTA, 200 mM NaCl, 0.005% Brij; cathepsin L:
Phe-Arg-AMC in DMSO (final conc.: 10 μM for rhodesain, 6.5 μM for cathepsin L) and monitored
with a Tecan Infinite M200 Pro plate reader (λ ex: 380 nm/λ em: 460 nm).

[7] = biological target: T1, rhodesain; experiment: Dilution assay (reversibility), rhodesain; type: biochemical; settings: 5×IC50, 50-fold dilution; data not shown
[8] = biological target: T1, rhodesain; experiment: Hydrolysis assay UV-Vis (ester hydrolysis by rhodesain); type: biochemical; settings: for half-life at 250 µM: Trypanosoma brucei rhodesiense, rhodesain enzyme solution, pH 5.5, absorbance at 400 nm vs time, read-out: t1/2 of ester hydrolysis by rhodesain; for turnover curve of absorbance at 400 nm vs. time with rhodesain: monitored for 2 h at 25 °C
Method: Since the esters and the free carboxylic acid have different UV-Vis characteristics, we recorded time-dependent absorbance spectra at 400 nm (Figure 9).
Figure 9 Kinetic analysis of the ester hydrolysis by rhodesain. […]
Hydrolysis assay – UV-Vis:
To a solution of rhodesain (10 μg/mL) in 197.5 μL reaction buffer (50 mM sodium acetate, pH 5.5,
(§1) (20 mM) was added and the absorbance was monitored for 2 h at 25 °C with a Tecan Spark 10M (λabs: […]

[9] = tested on: T. b. brucei 449 cell line; experiment: T. b. brucei cell survival assay (ATPlite); type: cell-based; settings: Trypanosoma brucei, 48 h; read-out: EC50 antitrypanosomal activity
Method: Benzyl ester 2 was tested for its antitrypanosomal activity as described previously.
5. T. b. brucei cell survival assay
Toxicity of 2 against trypanosomes ( T. b. brucei 449 cell line) were determined via an ATPlite assay as described previously[13–15] using the cellular ATP levels as a proxy for cell viability. 2 (5 mM stock solution in DMSO) was first diluted 1:3 in medium, followed by a 1:10 dilution step in a microplate and ten subsequent 1:2 dilution steps. 90 μL HMI-9 medium containing 2500 cells/mL were distributed in 96-well microplates (PerkinElmer). 10 μL of the 1:2 dilution step preparations of the tested compounds were added to the 90 μL cell suspension leading to final concentrations from 16.67 μM to 32.55 nM in the microplates. As a negative control, addition of 0.3% of DMSO corresponding to the highest DMSO concentration added by compound application was used. 10% DMSO was used as a positive control, since at this DMSO concentration, all cells die. […] 50 μL of ATPlite 1 step solution (PerkinElmer) was added to each well of the microplate and luminescence measured at room temperature with an Infinite® M200 PRO plate reader (Tecan Trading AG). The measured values were plotted against the compound concentrations top yield the dose-response curve. The EC 50 values were calculated using GraFit version 5.013 (Erithacus Software Ltd.).

[10] = biological target: T1, rhodesain; experiment: Hydrolysis assay LC/MS (ester hydrolysis by rhodesain); type: biochemical; settings: 24 h incubation with rhodesain, 25 °C
Method: As reported previously for benzyl esters of the tested dipeptide sequence, we raised the hypothesis also in the current case, that the observed ester cleavage of the rhodesain–inhibitor adduct (Figure 5) might occur by rhodesain-catalyzed enzymatic hydrolysis. To verify this hypothesis, we incubated compounds 1, 2 (benzyl esters), compound 6 (methyl ester) and compound 8 (tert-butyl ester) for 24 h with rhodesain. The reaction mixtures were subsequently analyzed by LC–MS.
In fact, we found ester hydrolysis for the benzyl and methyl esters, but not for the tert-butyl ester. […] The unconverted ester 1 was eluted at tR = 3.19 min. Upon incubation with rhodesain, a peak at tR = 1.03 min was observed matching the retention time of the reference acid 3. […]
triplicates at different time points (0, 30, 60, 120 min) and reactions were initiated by the addition of […]
Hydrolysis assay – LC/MS:
Hydrolysis assays were performed as described previously.[12] To a solution of rhodesain […]
2 mM DTT) 1 μL of either cpd. 1, 2, 6 or 8 in DMSO (20 mM) was added and the mixtures was incubated for 24 h at 25 °C. As negative reaction control, 99 μL assay buffer was treated with pure cpd. 1, 2, 6 or 8 in DMSO (20 mM) without rhodesain. […]
as §1

[11] = approximate value, read-out: Ki of initial non-covalent complex, Rhod
[12] = final complex, Dixon fit of vS vs [I], read-out: Rhod. Ki^* Method 2
[13] = final high-affinity complex, Ki/(1+k3/k4), read-out: Rhod. Ki^* Method 1
[14] = initial complex, Dixon fit of vi vs [I], read-out: Rhod. Ki Method 2
[15] = initial non-covalent complex, from kobs vs [I], read-out: Rhod. Ki Method 1
[16] = reversible, time-dependent inhibition, final high-affinity complex, mean of method 1 and method 2, read-out: Rhod. Ki^*
[17] = approximate value, read-out: Ki of initial non-covalent complex, CathL
[18] = final complex, Dixon fit of vS vs [I], read-out: Cath. L Ki^* Method 2
[19] = final high-affinity complex, Ki/(1+k3/k4), read-out: Cath. L Ki^* Method 1
[20] = initial complex, Dixon fit of vi vs [I], read-out: Cath. L Ki Method 2
[21] = initial non-covalent complex, from kobs vs [I], read-out: Cath. L Ki Method 1
[22] = reversible, time-dependent inhibition, final high-affinity complex, mean of method 1 and method 2, read-out: Cath. L Ki^*

| Structure (SMILES) | inhibition at 20 µM [1] [%] | inhibition at 20 µM [2] [%] | inhibition at 20 µM [3] [%] | inhibition at 20 µM [4] [%] | Ki [2, 18] [nM] | Ki [2, 19] [nM] | Ki [2, 20] [nM] | Ki [2, 21] [nM] | Ki [2, 22] [nM] | Cath. L k3 [2] [s⁻¹] | Cath. L k4 [2] [s⁻¹] | recovery of rhodesain activity by dialysis [5] | reactivation of enzyme activity after dilution, cathepsin L [6] | reactivation of enzyme activity after dilution, rhodesain [7] | Ki ([1]; read-out: Rhod. Ki) [nM] | also measured |
| --- | --- | --- | --- | --- | --- | --- | --- | --- | --- | --- | --- | --- | --- | --- | --- | --- |
| CC(C)C[C@H](NC(=O)[C@H](Cc1ccccc1)NC1=C(C#N)C(=O)c2ccccc2C1=O)C(=O)OC(C)(C)C [Compound 8] | 38 | 21 | – | – | – | – | – | – | – | – | – | – | – | – | – | – |
| COC(=O)[C@H](CC(C)C)NC(=O)[C@H](Cc1ccccc1)NC1=C(Cl)C(=O)c2ccccc2C1=O [Compound 5] | 48 | 45 | – | – | – | – | – | – | – | – | – | – | – | – | – | – |
| CC(C)C[C@H](NC(=O)[C@H](Cc1ccccc1)NC1=C(Cl)C(=O)c2ccccc2C1=O)C(=O)O [Compound 3] | – | – | 43 | 25 | 61 | 53 | 345 | 443 | 57 | 0.0052 | 0.0007 | the enzymatic activity was restored | full reactivation | full reactivation | – | fold improvement of rhodesain inhibition, acid compared to benzyl ester [1]: ca. 120 fold; Ki [1, 11]: ~60 nM; Ki [1, 12]: 36 nM; Ki [1, 13]: 11 nM; Rhod. t1/2 [1]: 19.25 min; Ki [1, 14]: 63 nM; Ki [1, 15]: 57 nM; Rhod. ΔEreac [1]: -0.85 kcal/mol; Ki [1, 16]: 24 nM; Rhod. k3 [1]: 0.0025 s⁻¹; Rhod. k4 [1]: 0.0006 s⁻¹; fold improvement of cathepsin L inhibition, acid compared to benzyl ester ([2]; 3 compared to ester 1): 20 fold; Ki [2, 17]: ~400 nM; Cath. L t1/2 [2]: 16.5 min; Cath. L ΔEreac [2]: -1.2 kcal/mol |
| COC(=O)[C@H](CC(C)C)NC(=O)[C@H](Cc1ccccc1)NC1=C(C#N)C(=O)c2ccccc2C1=O [Compound 6] | – | 40 | – | – | – | – | – | – | – | – | – | – | – | – | 1240 | half-life at 250 µM [8]: 10.2 min; turnover curve of absorbance at 400 nm vs. time with rhodesain [8]: hyperbolic turnover curves |
| CC(C)C[C@H](NC(=O)[C@H](Cc1ccccc1)NC1=C(C#N)C(=O)c2ccccc2C1=O)C(=O)OCc1ccccc1 [Compound 2] | – | – | – | – | 54 | 12 | 300 | 160 | 33 | 0.0148 | 0.0012 | – | full reactivation; also recorded: nearly fully recovered | – | 180 | IC50 ([3]; [S] = 100 µM (Boc-Gly-Arg-Arg-AMC)): 41000 nM; Ki ([4]; read-out: Cath. B Ki): 1900 nM; k3, cathepsin L ([2]; Method 1): 0.0148 s⁻¹; k4, cathepsin L ([2]; Method 1): 0.0012 s⁻¹; half-life t1/2 of final complex, cathepsin L ([2]; calculated by 0.693/k4): around 10 min; EC50 [9]: 120 nM; half-life at 250 µM [8]: 3.41 min; turnover curve of absorbance at 400 nm vs. time with rhodesain [8]: hyperbolic turnover curves |
| CC(C)C[C@H](NC(=O)[C@H](Cc1ccccc1)NC1=C(C#N)C(=O)c2ccccc2C1=O)C(=O)O [Compound 4] | – | – | 38 | 45 | 15 | 19 | 91 | 129 | 17 | 0.0051 | 0.0009 | the enzymatic activity was restored; also recorded: only slow reactivation | full reactivation | full reactivation | – | fold improvement of rhodesain inhibition, acid compared to benzyl ester [1]: ca. 1200 fold; Ki [1, 11]: ~0.4 nM; Ki [1, 12]: 0.2 nM; Ki [1, 13]: 0.1 nM; Rhod. t1/2 [1]: 19.25 min; Ki [1, 14]: 0.32 nM; Ki [1, 15]: 0.47 nM; Rhod. ΔEreac [1]: -0.89 kcal/mol; Ki [1, 16]: ~0.15 nM and 0.15 nM; Rhod. k3 [1]: 0.0027 s⁻¹; Rhod. k4 [1]: 0.0006 s⁻¹; Ki [2, 17]: ~100 nM; Cath. L t1/2 [2]: 12.8 min; Cath. L ΔEreac [2]: -1.1 kcal/mol |
| CN1CCN(C(=O)N[C@@H](Cc2ccccc2)C(=O)N[C@H](/C=C/S(=O)(=O)c2ccccc2)CCc2ccccc2)CC1 [K11777, reference compound] | – | – | – | – | – | – | – | – | – | – | – | the enzyme activity could not be recovered | no recovery was observed | – | – | – |
| CC(C)C[C@H](NC(=O)[C@H](Cc1ccccc1)NC1=C(Cl)C(=O)c2ccccc2C1=O)C(=O)OC(C)(C)C [Compound 7] | 51 | 38 | – | – | – | – | – | – | – | – | – | – | – | – | – | – |
| CC(C)CC(NC(=O)C(Cc1ccccc1)NC1=C(Cl)C(=O)c2ccccc2C1=O)C(=O)OCc1ccccc1 [Compound 1, Benzyl-N-(3-chloro-1,4-dioxo-1,4-dihydronaphthalen-2-yl)-L-phenylalanyl-L-leucinate] | – | – | 41 | 53 | – | – | – | – | – | – | – | – | full reactivation; also recorded: nearly fully recovered | 40–50% | 2900 | Ki ([2]; from plots of IC50 vs substrate concentration (Cheng–Prusoff), read-out: Cath. L Ki): 1140 nM; ester hydrolysis by rhodesain (LC–MS) [10]: rhodesain-catalyzed ester hydrolysis |
